The values that follow come from the supplement of paper PMC10307832.

What all share (assay): relative viability (nuclei count vs DMSO), 5 days (fraction); higher = more cells survive
Compound in assay [1]: C1/C(=C\C2=CC=CS2)/C(=O)/C(=C/C3=CC=CS3)/C1 + C[C@]1(O)C[C@@H](c2nc(-c3ccc4ccc(-c5ccccc5)nc4c3)c3c(N)nccn32)C1 [Linsitinib] (partner 1 µM)
The method in brief: (§1)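 Each reported value is a median over duplicate plates. It expresses relative viability: treated-well nuclei count divided by vehicle-well nuclei count. Lung cancer cell lines in 1536-well plates were dosed by pin tool a day after seeding, alone with one drug or with a fixed anchor-drug dose plus five library-drug doses (not always all listed) in √10 steps, and nuclei were counted after 5 days.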

Compound in assay [2]: C[C@]12O[C@H](C[C@]1(O)CO)n1c3ccccc3c3c4c(c5c6ccccc6n2c5c31)CNC4=O [Lestaurtinib] + C[C@]1(O)C[C@@H](c2nc(-c3ccc4ccc(-c5ccccc5)nc4c3)c3c(N)nccn32)C1 [Linsitinib] (partner 1 µM)
The method in brief: as §1

Compound in assay [3]: C1/C(=C\C2=CC=CS2)/C(=O)/C(=C/C3=CC=CS3)/C1 + COc1cc2c(Oc3ccc(NC(=O)C4(C(=O)Nc5ccc(F)cc5)CC4)cc3F)ccnc2cc1OCCCN1CCOCC1 [Foretinib] (partner 0.25 µM)
In short, it runs like this:
as §1

Compound in assay [4]: C[C@]12O[C@H](C[C@]1(O)CO)n1c3ccccc3c3c4c(c5c6ccccc6n2c5c31)CNC4=O [Lestaurtinib] + Cc1cc(Nc2cc(N3CCN(C)CC3)nc(Sc3ccc(NC(=O)C4CC4)cc3)n2)n[nH]1 [Tozasertib] (partner 0.1 µM)
The method in brief:
as §1

On to NCI-H596, for which the relative viability in assay [1] (first compound 0.2 µM) amounted to 1.15; in assay [1] (first compound 0.6325 µM), 1.04; in assay [1] (first compound 2 µM) it was 1.02; in assay [1] (first compound 6.325 µM), 1.01; in assay [1] (first compound 20 µM), 1.04; in assay [2] (first compound 0.005 µM), 1.04. Also, the relative viability came out at 1.01 in assay [2] (first compound 0.01581 µM); 0.882 in assay [2] (first compound 0.05 µM); 1.21 in assay [2] (first compound 0.1581 µM); 0.907 in assay [2] (first compound 0.5 µM); 0.895 in assay [3] (first compound 0.2 µM); 0.847 in assay [3] (first compound 0.6325 µM). In addition, the relative viability in assay [3] (first compound 2 µM) stood at 0.872; in assay [3] (first compound 6.325 µM) it was 0.753; in assay [3] (first compound 20 µM), 0.905; in assay [4] (first compound 0.005 µM), 0.885; in assay [4] (first compound 0.01581 µM), 1.16; in assay [4] (first compound 0.05 µM), 0.746. In addition, the results for the relative viability in assay [4] (first compound 0.1581 µM) and in assay [4] (first compound 0.5 µM) were 1.06 and 0.955, respectively.
As to NCI-H647, the relative viability was 1.27 in assay [1] (first compound 0.2 µM); 1.36 in assay [1] (first compound 0.6325 µM); 1.03 in assay [1] (first compound 2 µM); 0.969 in assay [1] (first compound 6.325 µM); 1.17 in assay [1] (first compound 20 µM); 1.08 in assay [2] (first compound 0.005 µM). Also, the relative viability was determined as 0.818 in assay [2] (first compound 0.01581 µM); 0.828 in assay [2] (first compound 0.05 µM); 0.265 in assay [2] (first compound 0.1581 µM); 0.311 in assay [2] (first compound 0.5 µM); 1.21 in assay [3] (first compound 0.2 µM); 1.22 in assay [3] (first compound 0.6325 µM). The relative viability in assay [3] (first compound 2 µM) is 1.11; in assay [3] (first compound 6.325 µM) it was 0.948; in assay [3] (first compound 20 µM), 1.21; in assay [4] (first compound 0.005 µM) it was 0.375; in assay [4] (first compound 0.01581 µM), 0.328; in assay [4] (first compound 0.05 µM), 0.188. Further, the relative viability in assay [4] (first compound 0.1581 µM) came to 0.124; in assay [4] (first compound 0.5 µM), 0.126.
For the cell line NCI-H650, the relative viability in assay [1] (first compound 0.2 µM) was found to be 0.96; in assay [1] (first compound 0.6325 µM) it was 0.86; in assay [1] (first compound 2 µM) it was 0.896; in assay [1] (first compound 6.325 µM) it was 0.903; in assay [1] (first compound 20 µM), 0.803; in assay [2] (first compound 0.005 µM), 0.79. Further, the relative viability in assay [2] (first compound 0.01581 µM) turned out to be 0.915; in assay [2] (first compound 0.05 µM), 0.503; in assay [2] (first compound 0.1581 µM), 0.455; in assay [2] (first compound 0.5 µM), 0.179; in assay [3] (first compound 0.2 µM) it was 1.02; in assay [3] (first compound 0.6325 µM), 0.926. The relative viability in assay [3] (first compound 2 µM) was found to be 0.933; in assay [3] (first compound 6.325 µM), 0.945; in assay [3] (first compound 20 µM), 0.999; in assay [4] (first compound 0.005 µM), 0.727; in assay [4] (first compound 0.01581 µM), 0.802; in assay [4] (first compound 0.05 µM), 0.603. The relative viability in assay [4] (first compound 0.1581 µM) was 0.483; in assay [4] (first compound 0.5 µM) it was 0.29.
Regarding NCI-H661, the relative viability in assay [1] (first compound 0.2 µM) amounted to 0.692; in assay [1] (first compound 0.6325 µM), 0.465; in assay [1] (first compound 2 µM), 0.508; in assay [1] (first compound 6.325 µM), 0.559; in assay [1] (first compound 20 µM), 0.48; in assay [2] (first compound 0.005 µM) it was 0.543. Moreover, the relative viability in assay [2] (first compound 0.01581 µM) is 0.609; in assay [2] (first compound 0.05 µM) it was 0.556; in assay [2] (first compound 0.1581 µM) it was 0.474; in assay [2] (first compound 0.5 µM), 0.262; in assay [3] (first compound 0.2 µM), 1.05; in assay [3] (first compound 0.6325 µM) it was 1.02. In addition, the relative viability in assay [3] (first compound 2 µM) came out at 1.02; in assay [3] (first compound 6.325 µM), 0.993; in assay [3] (first compound 20 µM), 1; in assay [4] (first compound 0.005 µM), 0.359; in assay [4] (first compound 0.01581 µM), 0.361; in assay [4] (first compound 0.05 µM) it was 0.395. The relative viability amounted to 0.423 in assay [4] (first compound 0.1581 µM) and 0.417 in assay [4] (first compound 0.5 µM).
Consider NCI-H727, for which the relative viability in assay [1] (first compound 0.2 µM) came to 0.263; in assay [1] (first compound 0.6325 µM) it was 0.302; in assay [1] (first compound 2 µM), 0.314; in assay [1] (first compound 6.325 µM), 0.228; in assay [1] (first compound 20 µM), 0.263; in assay [2] (first compound 0.005 µM), 0.306. The relative viability in assay [2] (first compound 0.01581 µM) was determined as 0.255; in assay [2] (first compound 0.05 µM), 0.28; in assay [2] (first compound 0.1581 µM) it was 0.285; in assay [2] (first compound 0.5 µM), 0.18; in assay [3] (first compound 0.2 µM), 0.907; in assay [3] (first compound 0.6325 µM), 0.802. Moreover, the relative viability is 1.1 in assay [3] (first compound 2 µM); 0.815 in assay [3] (first compound 6.325 µM); 0.96 in assay [3] (first compound 20 µM); 0.598 in assay [4] (first compound 0.005 µM); 0.728 in assay [4] (first compound 0.01581 µM); 0.63 in assay [4] (first compound 0.05 µM). Besides, the relative viability in assay [4] (first compound 0.1581 µM) is 0.584; in assay [4] (first compound 0.5 µM) it was 0.41.
As to NCI-H838, the relative viability in assay [1] (first compound 0.2 µM) is 1.12; in assay [1] (first compound 0.6325 µM), 0.979; in assay [1] (first compound 2 µM), 0.955; in assay [1] (first compound 6.325 µM), 0.8; in assay [1] (first compound 20 µM) it was 0.94; in assay [2] (first compound 0.005 µM), 1.04. Further, the relative viability amounted to 1.01 in assay [2] (first compound 0.01581 µM); 0.759 in assay [2] (first compound 0.05 µM); 0.507 in assay [2] (first compound 0.1581 µM); 0.146 in assay [2] (first compound 0.5 µM); 0.998 in assay [3] (first compound 0.2 µM); 1.1 in assay [3] (first compound 0.6325 µM). In addition, the relative viability in assay [3] (first compound 2 µM) was found to be 1.04; in assay [3] (first compound 6.325 µM), 0.812; in assay [3] (first compound 20 µM) it was 0.968; in assay [4] (first compound 0.005 µM), 0.275; in assay [4] (first compound 0.01581 µM), 0.238; in assay [4] (first compound 0.05 µM) it was 0.275. Also, the results for the relative viability in assay [4] (first compound 0.1581 µM) and in assay [4] (first compound 0.5 µM) were 0.2 and 0.171, respectively.
For the cell line NCI-H1355, the relative viability in assay [1] (first compound 0.2 µM) came to 0.906; in assay [1] (first compound 0.6325 µM), 0.744; in assay [1] (first compound 2 µM) it was 0.863; in assay [1] (first compound 6.325 µM) it was 0.666; in assay [1] (first compound 20 µM), 0.758; in assay [2] (first compound 0.005 µM), 0.795. The relative viability in assay [2] (first compound 0.01581 µM) is 0.838; in assay [2] (first compound 0.05 µM) it was 0.546; in assay [2] (first compound 0.1581 µM), 0.451; in assay [2] (first compound 0.5 µM) it was 0.302; in assay [3] (first compound 0.2 µM) it was 1.01; in assay [3] (first compound 0.6325 µM), 0.877. Moreover, the relative viability in assay [3] (first compound 2 µM) was found to be 0.995; in assay [3] (first compound 6.325 µM) it was 0.913; in assay [3] (first compound 20 µM), 0.954; in assay [4] (first compound 0.005 µM), 0.51; in assay [4] (first compound 0.01581 µM), 0.52; in assay [4] (first compound 0.05 µM), 0.377. Further, the relative viability in assay [4] (first compound 0.1581 µM) is 0.441; in assay [4] (first compound 0.5 µM) it was 0.287.
